# Square brackets hold non-standard residues; d marks the D form. Peptide text beside a SMILES is read from it. dPhe(4-Cl) = N[C@H](Cc1ccc(Cl)cc1)C(=O)O; NMeL = CN[C@@H](CC(C)C)C(=O)O; ΔPro = O=C(O)[C@@H]1C=CCN1; βAla = NCCC(=O)O
# Assays:
# [1] = molecular target: T1, Gonadotropin-releasing hormone receptor (Rattus norvegicus, UniProt P30969); assay: Affinity for rat gonadotrophin releasing hormone (GnRH) receptor using HEK293 cells transfected with rat Gonadotropin-releasing hormone receptor; format: cell-based; conditions: hek293
# T1 sequence (P30969 whole entry): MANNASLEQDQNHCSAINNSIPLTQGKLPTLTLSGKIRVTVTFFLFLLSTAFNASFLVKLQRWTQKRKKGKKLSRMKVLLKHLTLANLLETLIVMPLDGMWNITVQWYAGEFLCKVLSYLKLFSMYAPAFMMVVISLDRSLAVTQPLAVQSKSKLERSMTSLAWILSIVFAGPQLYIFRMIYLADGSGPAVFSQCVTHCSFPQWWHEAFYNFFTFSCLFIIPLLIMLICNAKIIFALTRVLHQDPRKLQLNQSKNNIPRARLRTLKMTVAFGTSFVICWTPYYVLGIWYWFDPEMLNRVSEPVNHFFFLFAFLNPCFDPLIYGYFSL
# Rattus norvegicus [2] = species: Rattus norvegicus; assay: Antiovulatory potency at 2.5 ug/rat expressed as rats ovulating by total no. of rats (0/5); format: functional
# Rattus norvegicus [3] = species: Rattus norvegicus; assay: Antiovulatory potency at 5 ug/rat expressed as rats ovulating by total no. of rats (1/8); format: functional
# Rattus norvegicus [4] = species: Rattus norvegicus; assay: Antiovulatory potency at 5 ug/rat expressed as rats ovulating by total no. of rats (2/3); format: functional
# Rattus norvegicus [5] = species: Rattus norvegicus; assay: Antiovulatory potency at 50 ug/rat expressed as rats ovulating by total no. of rats (3/3); format: functional
# Rattus norvegicus [6] = species: Rattus norvegicus; assay: Antiovulatory potency at 1500 ug/rat expressed as rats ovulating by total no. of rats (9/10); format: functional
# Rattus norvegicus [7] = species: Rattus norvegicus; assay: Antiovulatory potency at 250 ug/rat expressed as rats ovulating by total no. of rats (3/3); format: functional
# Rattus norvegicus [8] = species: Rattus norvegicus; assay: Antiovulatory potency at 50 ug/rat expressed as rats ovulating by total no. of rats (0/3); format: functional
# Rattus norvegicus [9] = species: Rattus norvegicus; assay: Antiovulatory potency at 10 ug/rat expressed as rats ovulating by total no. of rats (4/5); format: functional
# [10] = molecular target: T1, Gonadotropin-releasing hormone receptor; assay: Affinity for rat Gonadotropin-releasing hormone receptor membrane evaluated using HEK293 cells transfected with rat Gonadotropin-releasing hormone receptor; format: cell-based
# Rattus norvegicus [11] = species: Rattus norvegicus; assay: Antiovulatory potency at 25 ug/rat expressed as rats ovulating by total no. of rats (3/8); format: functional
# Rattus norvegicus [12] = species: Rattus norvegicus; assay: Antiovulatory potency at 100 ug/rat expressed as rats ovulating by total no. of rats (0/3); format: functional
# Rattus norvegicus [13] = species: Rattus norvegicus; assay: Antiovulatory potency at 10 ug/rat expressed as rats ovulating by total no. of rats (3/3); format: functional
# Rattus norvegicus [14] = species: Rattus norvegicus; assay: Antiovulatory potency at 25 ug/rat expressed as rats ovulating by total no. of rats (3/6); format: functional
# Rattus norvegicus [15] = species: Rattus norvegicus; assay: Antiovulatory potency at 50 ug/rat expressed as rats ovulating by total no. of rats (2/5); format: functional
# Rattus norvegicus [16] = species: Rattus norvegicus; assay: Antiovulatory potency at 250 ug/rat expressed as rats ovulating by total no. of rats (5/5); format: functional
# Rattus norvegicus [17] = species: Rattus norvegicus; assay: Antiovulatory potency at 100 ug/rat expressed as rats ovulating by total no. of rats (0/4); format: functional
# Rattus norvegicus [18] = species: Rattus norvegicus; assay: Antiovulatory potency at 100 ug/rat expressed as rats ovulating by total no. of rats (7/12); format: functional
compound,measurement,setting,value
CC(=O)N[C@@H]1CC(=O)NCCC(=O)NCC[C@H]2NC(=O)[C@@H](CC(=O)NC[C@H](C(N)=O)NC(=O)[C@H]3CCCN3C(=O)[C@H](CCCN=C(N)N)NC(=O)[C@@H](CC(C)C)NC(=O)[C@@H](Cc3ccc4ccccc4c3)NC2=O)NC(=O)[C@@H](Cc2c[nH]c3ccccc23)NC(=O)[C@H](Cc2ccc(Cl)cc2)NC1=O,Ki,[1],0.15 nM
same,Ovulating rats,Rattus norvegicus [2],0
same,Ovulating rats,Rattus norvegicus [3],1
CC(=O)N[C@@H]1CCC(=O)NCC(=O)NCC[C@H]2NC(=O)[C@@H](CC(=O)NC[C@H](C(N)=O)NC(=O)[C@H]3CCCN3C(=O)[C@H](CCCN=C(N)N)NC(=O)[C@@H](CC(C)C)NC(=O)[C@@H](CCCN=C(N)N)NC2=O)NC(=O)[C@@H](Cc2c[nH]c3ccccc23)NC(=O)[C@H](Cc2ccc(Cl)cc2)NC1=O,Ovulating rats,Rattus norvegicus [4],2
same,Ki,[1],17 nM
same,Ovulating rats,Rattus norvegicus [5],3
CC(C)C[C@H]1C(=O)N[C@@H](CCCN=C(N)N)C(=O)N2CCC[C@H]2C(=O)NCCC(=O)N2CC=C[C@H]2C(=O)N[C@H](Cc2ccc(Cl)cc2)C(=O)N[C@H](Cc2c[nH]c3ccccc23)C(=O)N[C@@H](CO)C(=O)N[C@@H](Cc2ccc(O)cc2)C(=O)N[C@H](Cc2c[nH]c3ccccc23)C(=O)N1C (cyclo([NMeL]RP[βAla][ΔPro][dPhe(4-Cl)][dW]SY[dW])),Ovulating rats,Rattus norvegicus [6],9
CC(=O)N[C@@H]1CC(=O)NCC(=O)NCC[C@H]2NC(=O)[C@@H](CC(=O)NC[C@H](C(N)=O)NC(=O)[C@H]3CCCN3C(=O)[C@H](CCCN=C(N)N)NC(=O)[C@@H](CC(C)C)NC(=O)[C@@H](Cc3cccnc3)NC2=O)NC(=O)[C@@H](Cc2cccnc2)NC(=O)[C@H](Cc2ccc(Cl)cc2)NC1=O,Ovulating rats,Rattus norvegicus [7],3
same,Ki,[1],1.6 nM
CC(=O)N[C@@H]1CCC(=O)NCCCC[C@H]2NC(=O)[C@@H](CC(=O)NC[C@H](C(N)=O)NC(=O)[C@H]3CCCN3C(=O)[C@H](CCCN=C(N)N)NC(=O)[C@@H](CC(C)C)NC(=O)[C@@H](Cc3ccc4ccccc4c3)NC2=O)NC(=O)[C@@H](Cc2c[nH]c3ccccc23)NC(=O)[C@H](Cc2ccc(Cl)cc2)NC1=O,Ovulating rats,Rattus norvegicus [8],0
same,Ovulating rats,Rattus norvegicus [9],4
same,Ki,[10],0.26 nM
same,Ovulating rats,Rattus norvegicus [11],3
CC(=O)N[C@@H]1CC(=O)NCC(=O)NCCC[C@H]2NC(=O)[C@@H](CC(=O)NC[C@H](C(N)=O)NC(=O)[C@H]3CCCN3C(=O)[C@H](CCCN=C(N)N)NC(=O)[C@@H](CC(C)C)NC(=O)[C@@H](Cc3ccc4ccccc4c3)NC2=O)NC(=O)[C@@H](Cc2c[nH]c3ccccc23)NC(=O)[C@H](Cc2ccc(Cl)cc2)NC1=O,Ovulating rats,Rattus norvegicus [12],0
same,Ovulating rats,Rattus norvegicus [13],3
same,Ovulating rats,Rattus norvegicus [14],3
same,Ki,[1],0.31 nM
same,Ovulating rats,Rattus norvegicus [15],2
CC(=O)N[C@H](Cc1ccc2ccccc2c1)C(=O)N[C@H](Cc1ccc(Cl)cc1)C(=O)N[C@@H]1CC(=O)NCCCC[C@@H]2NC(=O)[C@H](CC(C)C)NC(=O)[C@@H](CCCN=C(N)N)NC(=O)[C@H](Cc3ccc(O)cc3)NC(=O)[C@H](CC(=O)NC[C@@H](C(N)=O)NC(=O)[C@@H]3CCCN3C2=O)NC1=O,Ovulating rats,Rattus norvegicus [16],5
same,Ovulating rats,Rattus norvegicus [17],0
CC(=O)N[C@@H]1CSSC[C@H]2NC(=O)[C@@H](CC(=O)NC[C@H](C(N)=O)NC(=O)[C@H]3CCCN3C(=O)[C@H](CCCN=C(N)N)NC(=O)[C@@H](CC(C)C)NC(=O)[C@H](Cc3ccc4ccccc4c3)NC2=O)NC(=O)[C@@H](Cc2c[nH]c3ccccc23)NC(=O)[C@H](Cc2ccc(Cl)cc2)NC1=O,Ki,[1],5.7 nM
same,Ovulating rats,Rattus norvegicus [18],7
